Assay results published in ChEMBL document CHEMBL4765295, “Synthesis, pharmacological profile and 2D-QSAR studies of curcumin-amino acid conjugates as potential drug candidates” (Eur J Med Chem, 2020).
“And” between values parts separate entries of the source, which are not always exact repeats. Identical values can stand only once.

Tests used:
Rattus norvegicus [1] = assay: Antiinflammatory activity in Wistar rat model of carrageenan-induced paw edema assessed as reduction in thickness of paw edema at 10 mg/kg, ip pretreated for 1 hr followed by carrageenan challenge and measured after 1 hr (reference value: 2.41 +/-0.05 mm); assay type: functional; conditions: time 1 hr after carrageenan
Rattus norvegicus [2] = assay: Anti-inflammatory activity in Wistar rat assessed as inhibition of carrageenan-induced paw edema at 10 mg/kg, ip pretreated for 1 hr followed by carrageenan challenge and measured after 1 hr relative to control (reference value: 0.00 +/-0.02 %); assay type: functional; conditions: time 2 hrs
Rattus norvegicus [3] = assay: Antiinflammatory activity in Wistar rat model of carrageenan-induced paw edema assessed as reduction in thickness of paw edema at 10 mg/kg, ip pretreated for 1 hr followed by carrageenan challenge and measured after 2 hrs (reference value: 2.06 +/-0.09 mm); assay type: functional; conditions: time 3 hrs
Rattus norvegicus [4] = assay: Anti-inflammatory activity in Wistar rat assessed as inhibition of carrageenan-induced paw edema at 10 mg/kg, ip pretreated for 1 hr followed by carrageenan challenge and measured after 2 hr relative to control (reference value: 0.00 +/-0.03 %); assay type: functional; conditions: time 3 hrs
Rattus norvegicus [5] = assay: Antiinflammatory activity in Wistar rat model of carrageenan-induced paw edema assessed as reduction in thickness of paw edema at 10 mg/kg, ip pretreated for 1 hr followed by carrageenan challenge and measured after 3 hrs (reference value: 1.79 +/-0.07 mm); assay type: functional; conditions: time 4 hrs
Rattus norvegicus [6] = assay: Anti-inflammatory activity in Wistar rat assessed as inhibition of carrageenan-induced paw edema at 10 mg/kg, ip pretreated for 1 hr followed by carrageenan challenge and measured after 3 hr relative to control (reference value: 0.00 +/-0.1 %); assay type: functional; conditions: time 4 hrs
Rattus norvegicus [7] = assay: Antiinflammatory activity in Wistar rat model of carrageenan-induced paw edema assessed as reduction in thickness of paw edema at 10 mg/kg, ip pretreated for 1 hr followed by carrageenan challenge and measured after 4 hrs (reference value: 1.40 +/-0.10 mm); assay type: functional; conditions: time 5 hrs
Rattus norvegicus [8] = assay: Anti-inflammatory activity in Wistar rat assessed as inhibition of carrageenan-induced paw edema at 10 mg/kg, ip pretreated for 1 hr followed by carrageenan challenge and measured after 4 hr relative to control (reference value: 0.00 +/-0.4 %); assay type: functional; conditions: time 5 hrs
Rattus norvegicus [9] = assay: Antiinflammatory activity in Wistar rat model of carrageenan-induced paw edema assessed as reduction in thickness of paw edema at 10 mg/kg, ip pretreated for 1 hr followed by carrageenan challenge and measured after 24 hrs (reference value: 0.83 +/-0.08 mm); assay type: functional; conditions: time 25 hrs
Rattus norvegicus [10] = assay: Anti-inflammatory activity in Wistar rat assessed as inhibition of carrageenan-induced paw edema at 10 mg/kg, ip pretreated for 1 hr followed by carrageenan challenge and measured after 24 hr relative to control (reference value: 0.00 +/-0.3 %); assay type: functional; conditions: time 25 hrs
Rattus norvegicus [11] = assay: Anti-inflammatory activity in Wistar rat assessed as inhibition of carrageenan-induced paw edema at 10 mg/kg, ip pretreated for 1 hr followed by carrageenan challenge and measured after 4 hr relative to indomethacin; assay type: functional; conditions: time 5 hrs
Splenocyte [12] = assay: Immunomodulatory activity in Swiss albino mouse splenocytes assessed as cell viability at 10 uM by measuring stimulation index incubated for 72 hrs in presence of mitogenic stimulus phytohaemagglutinin by MTT assay (reference value: 1.00 +/- 0.24); assay type: functional
Splenocyte [13] = assay: Immunomodulatory activity in Swiss albino mouse splenocytes assessed as cell viability at 10 uM by measuring inhibition of stimulation index incubated for 72 hrs in presence of mitogenic stimulus phytohaemagglutinin by MTT assay relative to indomethacin; assay type: functional; conditions: read-out: Activity
Peritoneal macrophage [14] = assay: Antiinflammatory activity in […] mouse Peritoneal macrophages assessed as reduction in LPS-induced NO production by measuring reduction in stimulation index at 10 uM preincubated for 1 hr followed by LPS stimulation measured after 24 hrs by Griess method (reference value: 27.31 +/- 2.56 uM); assay type: functional; conditions: time 25 hrs
Peritoneal macrophage [15] = assay: Antiinflammatory activity in […] mouse Peritoneal macrophages assessed as inhibition of LPS-induced NO production at 10 uM preincubated for 1 hr followed by LPS stimulation measured after 24 hrs by Griess method relative to control (reference value: 0.0 %); assay type: functional; design: scale not given: the % may be the effect or the level left; conditions: time 25 hrs
Staphylococcus aureus = assay: Antibacterial activity against Staphylococcus aureus ATCC 25923 incubated for 18 hrs by agar dilution method; assay type: functional
Streptococcus pyogenes = assay: Antibacterial activity against Streptococcus pyogenes ATCC 19615 incubated for 18 hrs by agar dilution method; assay type: functional
Salmonella typhimurium = assay: Antibacterial activity against Salmonella typhimurium ATCC 19430 incubated for 18 hrs by agar dilution assay; assay type: functional, Salmonella enterica subsp. enterica serovar Typhimurium; conditions: Salmonella enterica
Pseudomonas aeruginosa = assay: Antibacterial activity against Pseudomonas aeruginosa ATCC 27853 incubated for 18 hrs by agar dilution assay; assay type: functional
Candida albicans = assay: Antifungal activity against Candida albicans incubated for 18 to 24 hrs by CLSI method; assay type: functional; conditions: time 18-24 hrs
[16] = Ulcerogenic activity in fasted albino mouse assessed as incidence of gastric ulceration at 10 mg/kg, po for 3 days (reference value: 0 %); assay type: toxicity, organism-based; conditions: in vivo, 72 h, time 3 day
[17] = Ulcerogenic activity in fasted albino mouse assessed as average number of ulcers in gastric mucosa at 10 mg/kg, po for 3 days (reference value: 0); assay type: toxicity, organism-based; conditions: in vivo, 72 h, time 3 day
[18] = Ulcerogenic activity in fasted albino mouse assessed as average severity of ulcers in gastric mucosa at 10 mg/kg, po for 3 days (reference value: 0); assay type: toxicity, organism-based; conditions: in vivo, 72 h, time 3 day
Mus musculus [19] = assay: Analgesic activity in albino mouse assessed reduction in acetic acid-induced abdominal writhing by measuring writing reflex at 10 mg/kg, ip pretreated for 1 hr followed by acetic acid challenge and measured starting 5 mins post acetic acid challenge for 10 mins (reference value: 42.4 +/- 1.02); assay type: functional; conditions: time 75 min, 1.25 h
Mus musculus [20] = assay: Analgesic activity in albino mouse assessed protection against acetic acid-induced abdominal writhing at 10 mg/kg, ip pretreated for 1 hr followed by acetic acid challenge and measured starting 5 mins post acetic acid challenge for 10 mins relative to control (reference value: 0 %); assay type: functional; conditions: time 75 min, 1.25 h
Mus musculus [21] = assay: Analgesic activity in albino mouse assessed protection against acetic acid-induced abdominal writhing at 10 mg/kg, ip pretreated for 1 hr followed by acetic acid challenge and measured starting 5 mins post acetic acid challenge for 10 mins relative to indomethacin; assay type: functional; conditions: time 75 min, 1.25 h
Mus musculus [22] = assay: Analgesic activity in albino mouse assessed as forepaw licking/jumping latency time at 10 mg/kg, ip measured after 30 mins by hot plate test (reference value: 5.02 +/- 0.09 sec); assay type: functional; conditions: 0.5 h
Mus musculus [23] = assay: Analgesic activity in albino mouse assessed as protection at 10 mg/kg, ip measured after 30 mins by hot plate test (reference value: 0 %); assay type: functional; conditions: 0.5 h
Mus musculus [24] = assay: Analgesic activity in albino mouse assessed as forepaw licking/jumping latency time at 10 mg/kg, ip measured after 60 mins by hot plate test (reference value: 3.42 +/- 0.03 sec); assay type: functional; conditions: 1 h
Mus musculus [25] = assay: Analgesic activity in albino mouse assessed as protection at 10 mg/kg, ip measured after 60 mins by hot plate test (reference value: 0 %); assay type: functional; conditions: 1 h
Mus musculus [26] = assay: Analgesic activity in albino mouse assessed as forepaw licking/jumping latency time at 10 mg/kg, ip measured after 90 mins by hot plate test (reference value: 2.72 +/- 0.01 sec); assay type: functional; conditions: 1.5 h
Mus musculus [27] = assay: Analgesic activity in albino mouse assessed as protection at 10 mg/kg, ip measured after 90 mins by hot plate test (reference value: 0 %); assay type: functional; conditions: 1.5 h
Mus musculus [28] = assay: Analgesic activity in albino mouse assessed as forepaw licking/jumping latency time at 10 mg/kg, ip measured after 120 mins by hot plate test (reference value: 2.62 +/- 0.06 sec); assay type: functional; conditions: 2 h
Mus musculus [29] = assay: Analgesic activity in albino mouse assessed as protection at 10 mg/kg, ip measured after 120 mins by hot plate test (reference value: 0 %); assay type: functional; conditions: 2 h
Mus musculus [30] = assay: Analgesic activity in albino mouse assessed as protection at 10 mg/kg, ip measured after 120 mins by hot plate test relative to indomethacin; assay type: functional; conditions: 2 h
[31] = Ulcerogenic activity in fasted albino mouse assessed as ulcer index in gastric mucosa at 10 mg/kg, po for 3 days (reference value: 0); assay type: toxicity, organism-based; conditions: in vivo, 72 h, time 3 day

| SMILES | Activity (Rattus norvegicus [1]) [mm] | inhibition in vivo at 10 mg/kg (Rattus norvegicus [2]) [%] | Activity (Rattus norvegicus [3]) [mm] | inhibition in vivo at 10 mg/kg (Rattus norvegicus [4]) [%] | Activity (Rattus norvegicus [5]) [mm] | inhibition in vivo at 10 mg/kg (Rattus norvegicus [6]) [%] | Activity (Rattus norvegicus [7]) [mm] | inhibition in vivo at 10 mg/kg (Rattus norvegicus [8]) [%] | Activity (Rattus norvegicus [9]) [mm] | inhibition in vivo at 10 mg/kg (Rattus norvegicus [10]) [%] | inhibition in vivo at 10 mg/kg (Rattus norvegicus [11]) [%] | Activity [16] [%] | Activity [17] | Activity [18] | Activity (Mus musculus [19]) | Activity (Mus musculus [20]) [%] | Activity (Mus musculus [21]) [%] | Time (Mus musculus [22]) [s] | Activity (Mus musculus [23]) [%] | Time (Mus musculus [24]) [s] | other results |
| --- | --- | --- | --- | --- | --- | --- | --- | --- | --- | --- | --- | --- | --- | --- | --- | --- | --- | --- | --- | --- | --- |
| COc1cc(/C=C/C(=O)/C=C(O)/C=C/c2ccc(OC(=O)CCNC(=O)OC(C)(C)C)c(OC)c2)ccc1OC(=O)CCNC(=O)OC(C)(C)C | 1.66 | 31 | 1.38 | 33 | 0.99 | 45 | 0.55 | 61 | 0.6 | 28 | 70 | – | – | – | – | – | – | – | – | – | Activity_index (Splenocyte [12]): 1.7; viability at 10 µM (Splenocyte [13]): 71.1%; Activity (Peritoneal macrophage [14]): 18.35 µM; Activity (Peritoneal macrophage [15]): 32.81%; MIC (Staphylococcus aureus): 0.25 µg/mL and 0.352 µM; MIC (Streptococcus pyogenes): 0.25 µg/mL and 0.352 µM; MIC (Salmonella typhimurium): 0.5 µg/mL and 0.703 µM; MIC (Pseudomonas aeruginosa): 0.25 µg/mL and 0.352 µM; MIC (Candida albicans): 0.5 µg/mL and 0.703 µM |
| CC(C)Cc1ccc(C(C)C(=O)O)cc1 (stereo not drawn) [IBUPROFEN] | 1.93 | 20 | 0.82 | 60 | 0.63 | 65 | 0.29 | 79 | 0.71 | 14 | 91 | 3.33 | 0.33 | 0.67 | 24.2 | 42.9 | 69.6 | 5.4 | 7.6 | 5.12 | Activity (Mus musculus [25]): 49.7%; Time (Mus musculus [26]): 4.12 s; Activity (Mus musculus [27]): 51.5%; Time (Mus musculus [28]): 3.48 s; Activity (Mus musculus [29]): 32.8%; Activity (Mus musculus [30]): 78.1% |
| COc1ccc2c(c1)c(CC(=O)O)c(C)n2C(=O)c1ccc(Cl)cc1 [INDOMETHACIN] | 1.11 | 53 | 0.85 | 59 | 0.59 | 67 | 0.18 | 87 | 0.12 | 86 | 100 | 10 | 2 | 1.67 | 16.3 | 61.6 | 100 | 6.3 | 25.5 | 5.26 | UI [31]: 13.67; Activity (Mus musculus [25]): 53.8%; Time (Mus musculus [26]): 3.84 s; Activity (Mus musculus [27]): 41.2%; Time (Mus musculus [28]): 3.72 s; Activity (Mus musculus [29]): 42%; Activity (Mus musculus [30]): 100% |
